The text below walks through data of patent publication US20130252983A1, “ACTIVATING PHOSPHORYLATION SITE ON GLUTAMINASE C” (CORNELL UNIVERSITY, priority 2010, published 2013).

Experiment [1] deals with NIH 3T3 cells stably expressing Cdc42(F28L), Rac(F28L), RhoC(F30L). Description: Growth to high density or in low serum of cells expressing activated Rho GTPase mutants. The format is cell-based, mouse. Particulars: 10 μM. The protocol:
(§1) FIGS. 2A-G illustrate effects of 968 on the transforming activity of constitutively active Rho GTPases and human breast cancer cells. […] Cells were scored after 14 days and plotted as the percentage of the total number of colonies greater than 50 μm in diameter. Data represent the average of 3 experiments (±s.d.). […] Data represent the average of 3 experiments (±s.d.). […] Data represent the average of 3 experiments (±s.d.). […] After 24 hours at 37° C., the migratory cells were fixed, stained with GIEMSA, and counted. Data represent the average of 3 experiments (±s.d.). […] Data represent the average of 3 experiments (±s.d.). […] Data represent the average of 3 experiments (±s.d.). […] Data represent the average of 3 experiments (±s.d.).

Experiment [2] concerns NIH 3T3 cells expressing oncogenic Dbl. Description: Dbl-induced cellular transformation (focus formation, growth in low serum, soft agar). The format is cell-based, mouse. The protocol:
FIGS. 1A-E illustrate that the small molecule 968 inhibits cellular transformation. […] Cells were fixed and stained with crystal violet for counting of foci. Right: 968 was serially diluted (10, 5, 2.5, and 1.25 μM) and evaluated for its ability to inhibit focus formation. […] After 6 days, the cells were counted. 100% represents the number of Dbl-transformed cells counted in the absence of 968 (27.5×10^4 cells). Data represent the average of 3 experiments (±s.d.). […] At the indicated times, the cells were counted. Data represent the average of 3 experiments (±s.d.).
as §1
FIGS. 5A-C illustrate comparative abilities of 968 and other benzo[a]phenanthridinones to inhibit the transforming activity of oncogenic Dbl and H-Ras. […] Histograms show the relative levels of Dbl-induced focus formation for the different treatments, compared to Dbl-induced focus formation measured in the presence of DMSO (i.e. solvent control). Data represent the average of 3 experiments (mean±s.d.). […] Histograms show the relative levels of Ras(G12V)-induced focus formation measured for the different treatments, compared to Ras(G12V)-induced focus formation measured in the presence of DMSO (solvent control). Data represent the average of 3 experiments (mean±s.d.). FIG. 5C NIH 3T3 cells stably expressing H-Ras(G12V) that were cultured in DMEM supplemented with 1% calf serum, with the indicated amounts of 968. After 6 days, cells are trypsinized and counted. 100% represents the number of cells counted in the absence of 968, i.e. 26×10^4 cells. Data represent the average of 3 experiments (mean±s.d.).

Experiment [3] addresses T1, mouse GAC (E. coli-expressed mouse ortholog of human GAC) (Mus musculus, UniProt D3Z7P3).
T1 construct: A plasmid encoding mouse GAC (residues 128-603) was cloned into the pET28a vector; His (N, cleaved yes); made in house; host or cells: E. coli (pET28a)
T1 sequence (D3Z7P3 128-603 isoform D3Z7P3-2): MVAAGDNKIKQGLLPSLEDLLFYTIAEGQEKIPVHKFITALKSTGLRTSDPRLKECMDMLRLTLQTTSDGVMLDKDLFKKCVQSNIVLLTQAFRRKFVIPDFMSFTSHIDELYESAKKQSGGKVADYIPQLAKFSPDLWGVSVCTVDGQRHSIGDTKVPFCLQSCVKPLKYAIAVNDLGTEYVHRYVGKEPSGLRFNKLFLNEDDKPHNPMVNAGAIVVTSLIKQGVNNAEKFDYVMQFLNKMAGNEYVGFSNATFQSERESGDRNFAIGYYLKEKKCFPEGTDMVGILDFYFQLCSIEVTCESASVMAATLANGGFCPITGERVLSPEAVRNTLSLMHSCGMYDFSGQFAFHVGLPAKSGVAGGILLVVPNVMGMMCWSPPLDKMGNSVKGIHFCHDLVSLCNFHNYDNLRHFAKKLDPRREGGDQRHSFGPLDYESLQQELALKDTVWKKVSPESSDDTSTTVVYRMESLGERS
Nature of the experiment: Recombinant glutaminase activity assay. It counts as biochemical. On the procedure: 100%=620 moles of glutamine hydrolyzed per minute per mole of enzyme. Data represent the average of 3 experiments (±s.d.). […] Following precipitation of the beads and re-suspension, the samples were analyzed by Western blotting with anti-V5 antibody. […] Data represent the average of 3 experiments (±s.d.). […] Data represent the average of 3 experiments (±s.d.). […] Data represent the average of 3 experiments (±s.d.). FIG. 3E NIH 3T3 cells transiently expressing Dbl were assayed for focus formation in the presence of 10 μM 968 alone or together with 7 mM dimethyl α-ketoglutarate. […] 100%=680 nM glutamine hydrolyzed per minute per 10^5 cells. Data are the average of 3 experiments (±s.d.). […] 100%=750 nM glutamine hydrolyzed per minute per 10^5 cells. Data represent the average of 3 experiments (±s.d.).
The activity of the E. coli-expressed recombinant mouse ortholog of human GAC were assayed in the presence of 0 ([…]), 10 (∇) or 20 (▪) μM 968 and inorganic phosphate in the form of dipotassium hydrogen phosphate. […] The data are plotted as GA activity as function of varying concentrations of glutamine or inorganic phosphate. The data are the average of 3 experiments and are plotted as mean±SEM.
Glutaminase activity assays were performed on recombinant enzyme as previously described (Kenny et al., “Bacterial Expression, Purification and Characterization of Rat Kidney-Type Mitochondrial Glutaminase,” Protein Expr. Purif. 31:140-148 (2003), which is hereby incorporated by reference in its entirety). A plasmid encoding mouse GAC (residues 128-603) was cloned into the pET28a vector and the protein was expressed with an N-terminal histidine (His)-tag. The tag was cleaved using thrombin and the protein was further purified by anion-exchange and gel-filtration chromatography. […] The reaction mixture was incubated at room temperature for 45 minutes and the absorbance at 340 nm was recorded for each sample against a water blank. The absorbance of the sample with just the cocktail mixture was subtracted from each reading to calculate the activity of the enzyme.

In experiment [4] the test system is GACΔC (C-terminal truncation mutant of GAC). Description: Glutaminase activity of immunoprecipitated GACΔC from treated Dbl-transformed cells. The following applies: 10 μM, 48 hours. It counts as cell-based, mouse.

As to `CN(C)c1ccc(C2Nc3ccc4ccccc4c3C3=C2C(=O)CC(C)(C)C3)cc1Br` (centres unmarked) [Compound 968, 5-[3-bromo-4-(dimethylamino)phenyl]-2,2-dimethyl-2,3,5,6-tetrahydrobenzo[a]], in experiment [1] (1% calf serum), the “growth under low serum conditions” value is given as “blocking their ability”. Further, the “growth to high density” value in experiment [1] (10% calf serum, 6 days) is listed as “blocking their ability”. The “Dbl-induced colony formation in soft agar” value in experiment [2] (10 μM) is “blocked”. The “potency against Dbl-induced transformation compared to oncogenic H-Ras” value in experiment [2] (focus formation in NIH 3T3 cells or growth in low serum) is recorded as “more potent inhibitor of Dbl-induced transformation”. In addition, the “concentration at which active in blocking Dbl-induced transformation” value in experiment [2] (focus-forming assays or growth in low serum) was 1 to 10 µM. Further, the “inhibition of enzymatic activity of purified mouse GAC” value in experiment [3] is listed as “inhibits the enzymatic activity”. For the same compound, the mode of inhibition entry in experiment [3] (0, 10 or 20 μM, glutamine or inorganic phosphate varied) is “neither competitive versus substrate (glutamine) nor inorganic phosphate”. In experiment [4], the “basal activity of GACΔC” value was “not further reduced”.
